According to US20200261443A1, “Use of Anti-Ischemic Compounds in Treating Acute-On-Chronic Liver Failure” (Martin Pharmaceuticals Inc., priority 2019, published 2020):
“Also recorded” adds a separate entry of the source. Like-named read-outs stand apart in the source and are kept apart here.

Experiments:
[1] = TMZ study in suspected ACLF: white blood cell count, platelet count, creatinine clearance; format: in vivo, human; settings: throughout the study, TMZ versus control groups; dihydrochloride
Text: A three-arm, randomized, controlled study enrolled 133 subjects presenting with acute decompensation of cirrhosis and suspected ACLF. Included patients presented with a prothrombin time extended by 4-6 seconds or an international normalized ratio of ≥1.5 or any degree of hepatic encephalopathy as assessed by the West Haven criteria.
In view of the overall disturbed immunlological state and the coagulopathy that is common in ACLF, it is important to asertain whether trimetazidine poses an additional risk to ACLF patients in this regard.

[2] = cited from earlier work
[3] = tested on: non-alcoholic steatohepatitis; settings: human population; cited from earlier work
liver lipid homeostasis = settings: human normal obese subjects; cited from earlier work
[4] = tested on: patients with acute decompensation of cirrhosis and suspected ACLF; assay: Three-arm, randomized, controlled TMZ study in suspected ACLF: mortality; format: in vivo, human; settings: for Treatment effect on Day 90 mortality: dihydrochloride
Text: A three-arm, randomized, controlled study enrolled 133 subjects presenting with acute decompensation of cirrhosis and suspected ACLF.
Patient were divided into two groups by Child Pugh score: Class A or B (<10) and Class C (≥10).
[…] 1. The ACLF3 group was not analyzed because of the small numbers.

[5] = tested on: carbon tetrachloride-induced fulminant liver failure; settings: animal model; cited from earlier work
[6] = Day 30, CP < 10, TMZ arm = TMZ + LOLA + SoC, LOLA arm = LOLA + SoC

COc1ccc(CN2CCNCC2)c(OC)c1OC.Cl.Cl [TMZ, 1-(2,3,4-trimethoxybenzyl)piperazine dihydrochloride]
Estimated creatinine clearance rate [1]: does not Affect; also recorded: no difference between the TMZ and control groups
Platelet count / thrombocytopenia [1]: does not Affect; also recorded: not causing thrombocytopenia; also recorded: no difference between the TMZ and control groups
White blood cell levels [1]: does not Affect; also recorded: no meaningful difference between the TMZ and control groups
Solubility in water / aqueous solution ([2]; dihydrochloride): highly soluble in water
Solubility in water / aqueous solution ([2]; listed as dihydrochloride form of TMZ, dihydrochloride): very soluble
Effect on parameters associated with non-alcoholic steatohepatitis [3]: improve certain parameters associated with non-alcoholic steatohepatitis
Effect on liver lipid homeostasis (liver lipid homeostasis): improve liver lipid homeostasis
Treatment effect on Day 90 mortality ([4]; ACLF1 population): drug effect was visible; also recorded: Positive results
Treatment effect on Day 90 mortality ([4]; ACLF2 population): drug effect was visible; also recorded: Positive results
Treatment effect on Day 90 mortality ([4]; ACLF population by EASL-CLIF criteria, worst case imputation): highly statistically significant difference; also recorded: robust effect
Treatment effect on Day 90 mortality ([4]; AD population by EASL-CLIF criteria, worst case imputation): not even a trend towards an effect; also recorded: ineffective
30- and 90-day mortality ([4]; Child Pugh Class C (≥10) subjects): substantial and statistically significant reductions
Alive (number of patients) [4, 6]: 9
Dead (number of patients) [4, 6]: 2
Dead (percent of patients) [4, 6]: 18%
Alive (number of patients) ([4]; Day 30, CP ≥ 10): 20
Dead (number of patients) ([4]; Day 30, CP ≥ 10): 5
Dead (percent of patients) ([4]; Day 30, CP ≥ 10): 20%
Alive (number of patients) ([4]; Day 90, CP < 10): 7
Dead (number of patients) ([4]; Day 90, CP < 10): 4
Dead (percent of patients) ([4]; Day 90, CP < 10): 36%
Alive (number of patients) ([4]; Day 90, CP ≥ 10): 16
Dead (number of patients) ([4]; Day 90, CP ≥ 10): 9
Dead (percent of patients) ([4]; Day 90, CP ≥ 10): 36%
Effectiveness in fulminant liver failure [5]: effectiveness

COc1ccc(CN2CCNCC2)c(OC)c1OC [neutral form of TMZ, 1-(2,3,4-trimethoxybenzyl)piperazine]
Solubility in organic environments [2]: soluble in certain organic environments
Solubility in water / aqueous solution [2]: only sparingly soluble in aqueous solution

L-ornithine-L-aspartate [LOLA]
Alive (number of patients) [4, 6]: 10
Alive (number of patients) ([4]; Day 30, CP ≥ 10): 16
Alive (number of patients) ([4]; Day 90, CP < 10): 6
Alive (number of patients) ([4]; Day 90, CP ≥ 10): 6
